Measured values published in patent publication US20090286884A1, “Hops Beta-Acid Anti-Diabetic Composition” (priority 2004, published 2009).

Tested on: normal human muscle myoblasts (HSMM)
Test: 3H-deoxyglucose uptake into skeletal muscle cells
Type: cell-based
Conditions: after 24 hrs incubation in the presence of various hops extracts
Description: All skeletal muscle cell strains used are skeletal muscle myoblast cells (purchased from Clonetics) with negative for HIV-I, hepatitis-B & C, mycoplasma, bacteria, yeast and fungi. This Skeletal Muscle Myoblast Cell System contains normal human muscle myoblasts (HSMM). The cell and media System can quickly generate HSMM cultures for the study of cellular development and differentiation, insulin uptake or resistance, or tissue repair. The Skeletal muscle cells were cultured on Cytostar 96-well cultured plate. Cells were labeled with 3H-deoxyglucose (50 μCi/ml, 4 μM) in the presence of 8 mM glucose. Radioactivity was counted on a Microbeta scintillation counter. In beta-acid treated cells (mixture of 65:25:10 of co-Lupulone: lupulone: ad-lupulone, Beta Tec, Washington, D.C.), kinetics of labeled deoxyglucose uptake was directly measured without washing. In order to avoid color quenching of quercetin treated cells, cells were washed with Hanks buffer and then the radioactivity was measured at end-point (18 hr). Error bars show SD (n=3).

COc1cc(O)c(CC=C(C)C)c(O)c1C(=O)/C=C/c1ccc(O)cc1 [xanthohumol]
glucose uptake into muscle skeletal cells, enhancing effect: no enhancing effect
